Assay results as given in US20250295711A1, “FOOD SUPPLEMENT” (FONTERRA CO-OPERATIVE GROUP LIMITED, priority 2022, published 2025).
Marks after values point to notes of the source that are not given here.

How the values were obtained:
Assay type in all cases: in vivo, rat
[1] = test system: TNF-alpha, IL-6, IL-1β and IL-18; assay: Cytokines TNF-alpha, IL-6, IL-1β and IL-18 in serum, brain tissue and colon of CUMS rats; settings: versus CUMS
Method: (§1) A series of experiments were conducted using the chronic unpredictable mild stress (CUMS) rodent model. Rats were exposed daily to any two of the following mild physiological stresses selected at random: • 12 hours of water deprivation • 12 hours of food deprivation • 8 hours of damp sawdust • 24 hours of reversed light/dark cycle • 2 minutes of tail pinching • 1 hour of 60 Hz noise • 15 minutes of cage shaking • Swimming in 4° C. water for 5-10 minutes • 2 hours of restraining.
(§2) Six groups of rats were assessed: • 1. Control rats: rats raised normally without stress treatments and without nutritional or drug interventions. • 2. CUMS rats: rats subjected to the CUMS protocol but without nutritional or drug interventions. • 3. CUMS HN001: rats subjected to the CUMS protocol and given HN001. • 4. CUMS HN019: rats subjected to the CUMS protocol and given HN019. • 5. CUMS HN001+HN019: rats subjected to the CUMS protocol given both HN001 and HN019. • 6.
(§3) Baseline assessments were then conducted, including blood collection. For the next 40 days, rats in groups 2-6 were exposed to CUMS treatments to induce depression symptoms associated with stress and anxiety.
(§4) A series of blood markers were assessed.

brain and colon tissue = assay: HE staining of brain and colon tissues of CUMS rats; settings: FIG. 5
From the text: Brain tissues included two regions from the hippocampus (Dentate Gyrus (DG) and CA1) and a region from the cortex (P2).
Brain and colon tissue were stained using the HE method. Brain tissue included two regions from the hippocampus (Dentate Gyrus (DG) and CA1) and a region from the cortex (P2). The results are shown in FIG. 5 and reveal that for the control group, neurons in hippocampal regions (dentate gyrus (DG) and Ca1) and the cortex (P2) were normal, orderly, tightly packed cells. The cells had expected morphology, homogeneous cytoplasmic staining, and no increased interstitial or abnormal changes.
For the colon tissue, control intestinal villi were arranged neatly, with normal cell morphology and no obvious damage was seen.

CUMS rats [2] = assay: Elevated-plus maze test in CUMS rats
Method: as §1, §2, §3
(§5) Tests were then carried out to assess rat behaviours, such as the open field test and the elevated maze test (see FIG. 2). These are standard ways to measure rat stress and anxiety traits.

[3] = test system: Adrenocorticotropic Hormone (ACTH); assay: Serum adrenocorticotropic hormone content in CUMS rats
Method: as §1, §2, §3

IL-6 = IL-6 content in serum, brain and colon of CUMS rats
Method: as §1, §2, §3, §4

TNF-α = TNF-α content in serum, brain and colon of CUMS rats
Method: as §1, §2, §3, §4

[4] = test system: Corticotropin Releasing Hormone (CRH); assay: Serum corticotropin releasing hormone content in CUMS rats; settings: after CUMS, before intervention
Method: as §1, §2, §3

CUMS rats [5] = assay: Open field test in CUMS (chronic unpredictable mild stress) rats
Method: as §1, §2, §3, §5

[6] = after CUMS, before intervention
[7] = base line, before CUMS and before intervention
[8] = serum, after CUMS with intervention
[9] = serum, after CUMS, before intervention

SMILES: CNCCC(Oc1ccc(C(F)(F)F)cc1)c1ccccc1 (stereo not shown) [Flu, fluoxetine, reference compound]
- Levels of cytokines TNF-alpha, IL-6, IL-1β and IL-18 [1]: reduced levels of cytokines
- Morphology of hippocampus (DG, CA1) and cortex (P2) (brain and colon tissue; brain): CUMS-associated damage was largely reduced
- Morphology of colon tissue (intestinal villi, mucosa) (brain and colon tissue; colon): largely reduced
- Time in Closed Arms in Elevated Plus Maze, After intervention (x ± S) (CUMS rats [2]; after CUMS with intervention): 224.96 ± 18.71^b Seconds
- Total Distance Travelled in Elevated Maze Test, After intervention (x ± S) (CUMS rats [2]; after CUMS with intervention): 6.19 ± 1.75^b Metres
- Time in Closed Arms in Elevated Plus Maze, After CUMS (x ± S) (CUMS rats [2]; [6]): 292.57 ± 8.90^a Seconds
- Total Distance Travelled in Elevated Maze Test, After CUMS (x ± S) (CUMS rats [2]; [6]): 2.37 ± 1.12^a Metres
- Time in Closed Arms in Elevated Plus Maze, Base line (x ± S) (CUMS rats [2]; [7]): 240.31 ± 16.95 s
- Total Distance Travelled in Elevated Maze Test, Base line (x ± S) (CUMS rats [2]; [7]): 7.44 ± 1.38 Metres
- Serum Adrenocorticotropic Hormone (ACTH) Content, After intervention ([3]; after CUMS with intervention): 2.90 ± 2.20^b pg/ml
- Serum Adrenocorticotropic Hormone (ACTH) Content, After CUMS [3, 6]: 5.58 ± 1.41^a pg/ml
- IL-6 Content, Brain (IL-6; brain, end of experiment): 19.35 ± 4.29^b pg/ml
- IL-6 Content, Colon (IL-6; colon, end of experiment): 30.89 ± 7.22^b pg/ml
- IL-6 Content, serum-after intervention (IL-6; [8]): 9.83 ± 3.83^b pg/ml
- IL-6 Content, serum-after CUMS (IL-6; [9]): 13.35 ± 6.46^a pg/ml
- TNF-α Content, Brain (TNF-α; brain, end of experiment): 48.62 ± 7.26^b pg/ml
- TNF-α Content, Colon (TNF-α; colon, end of experiment): 69.09 ± 12.48^b pg/ml
- TNF-α Content, serum-after intervention (TNF-α; [8]): 9.83 ± 3.83^b pg/ml
- TNF-α Content, serum-after CUMS (TNF-α; [9]): 23.35 ± 6.46^a pg/ml
- Serum Corticotropin Releasing Hormone (CRH) Content, After CUMS [4]: 5.50 ± 2.02^a pg/ml
- Total Distance Travelled in Open Field Test, After CUMS only (x ± S) (CUMS rats [5]; after 40 days CUMS, before intervention): 2.89 ± 2.15^a Metres
- Vertical Movement (Number of Times Standing Up) in Open Field Test, After intervention (x ± S) (CUMS rats [5]; after CUMS with intervention): 11.20 ± 3.49^b
- Vertical Movement (Number of Times Standing Up) in Open Field Test, After CUMS (x ± S) (CUMS rats [5]; [6]): 2.00 ± 1.79^a
- Total Distance Travelled in Open Field Test, Base line (x ± S) (CUMS rats [5]; [7]): 23.34 ± 2.98 Metres
- Vertical Movement (Number of Times Standing Up) in Open Field Test, Base line (x ± S) (CUMS rats [5]; [7]): 17.20 ± 8.04
